For assay [1], the target named is T1, serpentine synthase (SS, CrSS) (Catharanthus roseus, UniProt A0A8F5R546).
T1 construct: predicted TM helix aa 7-24 FWSLPAIALLQVFLFFLF; 6HIS version (in planta) about 59 kDa
T1 sequence (A0A8F5R546 1-511): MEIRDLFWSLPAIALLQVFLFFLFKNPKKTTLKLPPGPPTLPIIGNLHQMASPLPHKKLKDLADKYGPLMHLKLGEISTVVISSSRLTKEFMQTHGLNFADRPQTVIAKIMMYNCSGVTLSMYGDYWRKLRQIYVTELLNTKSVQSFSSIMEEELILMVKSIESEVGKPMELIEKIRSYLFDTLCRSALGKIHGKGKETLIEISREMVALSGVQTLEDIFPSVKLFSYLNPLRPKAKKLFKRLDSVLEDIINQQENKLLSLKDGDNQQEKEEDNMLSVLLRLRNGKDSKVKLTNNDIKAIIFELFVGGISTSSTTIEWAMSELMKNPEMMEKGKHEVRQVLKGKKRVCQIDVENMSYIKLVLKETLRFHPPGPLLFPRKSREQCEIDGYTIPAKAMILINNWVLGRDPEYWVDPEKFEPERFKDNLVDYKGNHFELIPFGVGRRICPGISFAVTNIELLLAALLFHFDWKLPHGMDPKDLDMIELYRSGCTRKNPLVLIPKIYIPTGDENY
Briefly: LC-MS of product alstonine, yeast cultures expressing CrSS and yeast microsomes. It counts as biochemical. The settings on record: 30 uM substrate; microsomes: 150 uM NADPH, HEPES-NaOH pH 7.5, 30 C, 60 min; AaCPR co-expressed.

Assay [2] has as its target T1, serpentine synthase (SS, CrSS). Put plainly: LC-MS of product serpentine, yeast cultures expressing CrSS and yeast microsomes. Type of assay: biochemical. The settings on record: 30 uM substrate; microsomes: 150 uM NADPH, HEPES-NaOH pH 7.5, 30 C, 60 min; AaCPR co-expressed.

Each structure is given as a SMILES string.

Turning to `COC(=O)C1=CO[C@@H](C)[C@@H]2CN3CCc4c([nH]c5ccccc45)[C@@H]3C[C@H]12` [THA], the “LC-MS of product alstonine, yeast cultures expressing CrSS and yeast microsomes” value in assay [1] is “this cytochrome P450 could also produce alstonine from THA”.
As for `COC(=O)C1=CO[C@@H](C)[C@H]2CN3CCc4c([nH]c5ccccc45)[C@@H]3C[C@H]12` [ajmalicine], the “LC-MS of product serpentine, yeast cultures expressing CrSS and yeast microsomes” value in assay [2] is on record as “CrSS produced serpentine from ajmalicine when incubated in the media of yeast cultures expressing CrSS”.

The values above are taken from paper PMC8491018, “Improved virus-induced gene silencing allows discovery of a serpentine synthase gene in Catharanthus roseus” (Plant Physiology, 2021).
